Reference: patent US20230190774A1, “METHOD OF USING SUBSTRATES OF AKR1Bl/AKR1B10 AS ANTI-CANCER DRUGS” (Beijing Normal University Hong Kong Baptist University …, priority 2015, published 2023)
Entries after “also recorded” stand apart in the source; their conditions may differ. Like-named read-outs stand apart in the source and are kept apart here.

What was measured:
AKR1B10 [1] = target: T1, AKR1B10 (Homo sapiens, UniProt O60218); test: Enzyme activity assay (NADPH oxidation), purified AKR1B10; type: biochemical; conditions: 20 mM substrate, pH 7.0, 30° C.
T1 sequence (O60218 whole entry): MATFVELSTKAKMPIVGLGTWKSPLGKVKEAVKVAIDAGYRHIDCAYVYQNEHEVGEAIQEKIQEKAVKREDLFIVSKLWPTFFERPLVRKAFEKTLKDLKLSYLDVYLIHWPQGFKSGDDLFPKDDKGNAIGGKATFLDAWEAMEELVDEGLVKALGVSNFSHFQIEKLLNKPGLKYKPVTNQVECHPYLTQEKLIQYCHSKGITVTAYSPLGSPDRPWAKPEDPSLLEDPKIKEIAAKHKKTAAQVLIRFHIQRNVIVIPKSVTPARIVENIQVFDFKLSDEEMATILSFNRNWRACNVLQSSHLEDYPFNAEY
Procedure: (§1) Assay of AKR1B1 and AKR1B10 enzymes activities were conducted in 1 ml of the reaction mixture containing 135 mM sodium phosphate buffer (pH 6.2 for AKR1B1 or pH 7.0 for AKR1B10), 0.2 mM NADPH, 0.3 M ammonium sulfate, 2 µg purified protein and 20 mM of their substrate as indicated. The reaction mix was incubated at 30° C. for 30 minutes (min). Protein-free blank controls were included. The decrease of NADPH was monitored by spectrophotometer at 340 nm. Enzyme activity was calculated as the amount of NADPH oxidized/min/mg of protein (Shen Y et al., Chem Biol Interact. 2011, 191(1-3): 192-198).

[2] = for Death Rate: both, ICR, 14 days
Procedure: ICR mice (18-22 g) were acquired from the Laboratory Animal Services Centre, The Chinese University of Hong Kong. These animals were housed in an animal room with 12 h of day and dark cycles, and the temperature maintained at around 25° C. There were 4 male and 4 female in each treatment and control group. They were treated with either diacetyl or glyceraldehyde. Diacetyl and glyceraldehyde were dissolved with saline and administered to the mice by intravenous injection with the amount indicated. […] Mortality was recorded daily for the calculation of […] (LD50). All surviving animals were euthanized with diethyl-ether at the end of the experiment.

AKR1B1 [3] = target: T2, AKR1B1 (Homo sapiens, UniProt P15121); conditions: ND = no detectable activity or less than 32 nmol/min/mg; cited from earlier work
AKR1B10 [4] = target: T1, AKR1B10; conditions: ND = no detectable activity or less than 32 nmol/min/mg; cited from earlier work
AKR1B1 [5] = target: T2, AKR1B1; test: Enzyme activity assay (NADPH oxidation), purified AKR1B1; type: biochemical; conditions: 20 mM substrate, pH 6.2, 30° C.
Procedure: as §1

HepG2 tumor xenograft = conditions: 500 mg/kg, tail vein, daily for 21 days
Procedure: Six-week-old male BALB/C nude mice were purchased from the Laboratory Animal Unit of the University of Hong Kong. Mice were allowed to acclimate to laboratory conditions for 1 week before cancer cells injection. […] Treatment was initiated when the tumor grew to about 200±100 mm3. […] Mice were randomized and allocated to different groups. They received daily tail vein injection for 3 weeks of one of the following: glyceraldehyde (500 mg/kg body weight); diacetyl (80 mg/kg body weight); or normal saline. Mice were weighted and the sizes of the tumors were measured with calipers every 3 days. Tumor volumes were calculated with the formula: length×width2/2. Animals were humanely killed at the end of the experiment and their tumors were weighed.

HepG2 cells = test: Cytotoxicity assay (cell survival rate, MTT); type: cell-based
Procedure: (§2) HepG2 cells, SKOV3 cells, HCT116 cells and CaCo2 cells were cultured in DMEM medium, SW480 cells in 1640 medium, and HT29 cells in McCoy’s 5A medium. All cell culture media were supplemented with 10% FBS, 1% PSN, and cells were cultured in a humidified incubator containing 5% CO2 at 37° C. In cytotoxicity assays, cells were seeded at 1 × 10^5 cells/well in 96 well plates with full medium. In GSH assay and Western blot analysis, cells were seeded at 3× 10^6 cells/well in 6 well plates.
(§3) The AKR1Bs substrates’ cytotoxicity was assessed by cell survival rate using MTT assay. After the cells were treated with the substrates for the length of time indicated, MTT was added to a final concentration of 0.5 mg/ml in each well of a 96-well plate, and the plates were incubated at 37° C. for 4 hour. Then DMSO was added to dissolve the formazan product, the amount of which is proportional to the number of live cells. The absorbance of dissolved dye was measured at 540 nm using an automatic microplate reader.

SKOV3 cells = test: Cytotoxicity assay (cell survival rate, MTT); type: cell-based
Procedure: as §2, §3

CaCo2 cells = test: Cytotoxicity assay (cell survival rate, MTT); type: cell-based
Procedure: as §2, §3

HCT116 cells = test: Cytotoxicity assay (cell survival rate, MTT); type: cell-based
Procedure: as §2, §3

HT29 cells = test: Cytotoxicity assay (cell survival rate, MTT); type: cell-based
Procedure: as §3, with “HepG2 cells, SKOV3 cells, HCT116 cells and CaCo2 cells were cultured in DMEM medium, SW480 cells in 1640 medium, and HT29 cells in McCoy’s 5A medium. […] In cytotoxicity assays, cells were seeded at 1 × 10^5 cells/well in 96 well plates with full medium. In GSH assay and Western blot analysis, cells were seeded at 3× 10^6 cells/well in 6 well plates. The AKR1Bs” for “The AKR1Bs”

SW480 cells = test: Cytotoxicity assay (cell survival rate, MTT); type: cell-based
Procedure: as §3, with “HepG2 cells, SKOV3 cells, HCT116 cells and CaCo2 cells were cultured in DMEM medium, SW480 cells in 1640 medium, and HT29 cells in McCoy’s 5A medium. […] In cytotoxicity assays, cells were seeded at 1 × 10^5 cells/well in 96 well plates with full medium. In GSH assay and Western blot analysis, cells were seeded at 3× 10^6 cells/well in 6 well plates. The AKR1Bs” for “The AKR1Bs”

AKR1B10 [6] = test: Western blot of AKR1B10 protein level in treated cells; type: cell-based, human
Procedure: as §2
(§4) Cells were lysed on ice with the protein extraction reagent. Total protein (30 µg) per sample were loaded onto 10% SDS-polyacrylamide gels and separated at 75V, and then electrotransferred to polyvinylidene difluoride (PVDF) membranes overnight at 15 V. Membranes were then soaked in 5% nonfat milk in TBS at room temperature for 1 hour and then incubated with rabbit anti-AKR1B1 antibodies (1:3000) or rabbit anti-AKR1B10 antibodies (1:3000) at room temperature for 2 hours. After being washed, the membranes were incubated in HRP-conjugated goat anti-rabbit or goat anti-mouse IgG secondary antibodies (1:5000) for 1 hour at room temperature, followed by washing and incubation with ECL reagents for 1 min. β-actin monoclonal mouse antibodies (1:5000) was used as reference to assess the relative amounts of proteins loaded per lane.

AKR1B1 [7] = test: Western blot of AKR1B1 protein level in treated cells; type: cell-based, human
Procedure: as §2, §4

[8] = substrate alone, 2DG for 72 hours
[9] = BSO (0.3 mM) with 1.25/0.625 mM substrate, NAC with 2.5/1.25 mM substrate
[10] = BSO with 1.25/0.625 mM substrate, NAC with 2.5/1.25 mM substrate
[11] = pretreated 24 hours before addition of 2DG

O=CC(O)CO (racemic) [Glyceraldehyde, glyceraldehyde]
Efficiency as substrate of AKR1B10 (rate of NADPH depletion) (AKR1B10 [1]): excellent substrate
LD50 ([2]; ICR mice, intravenous injection daily for 14 days): greater than 2000 mg/kg BW
Death Rate ([2]; mouse, in vivo, iv, 1000 mg/kg): 0%
Death Rate ([2]; mouse, in vivo, iv, 2000 mg/kg): 0%
LD50 ([2]; mouse, in vivo, iv): >2000 mg/kg BW
AKR1B1 activity, amount of NADPH (nmol) oxidized per min per mg of protein (AKR1B1 [3]): 1681 nmol/min/mg
AKR1B10 activity, amount of NADPH (nmol) oxidized per min per mg of protein (AKR1B10 [4]): 1853 nmol/min/mg
Efficiency as substrate of AKR1B1 (rate of NADPH depletion) (AKR1B1 [5]): excellent substrate
Efficiency as substrate of AKR1B1 (rate of NADPH depletion) (AKR1B1 [5]; listed as glyceraldehyde): best substrate
Tumor volume (HepG2 tumor xenograft): significantly reduced
Tumor weight (HepG2 tumor xenograft): significantly reduced
Cytotoxicity of AKR1Bs substrate (cell survival rate) (HepG2 cells; [8]): dose-dependently and preferentially kill; also recorded: dose dependently and preferentially kill; also recorded: most efficient
Cytotoxicity of AKR1Bs substrate (cell survival rate) (SKOV3 cells; [8]): dose-dependently and preferentially kill; also recorded: dose dependently and preferentially kill; also recorded: most efficient
Cytotoxicity of AKR1Bs substrate (cell survival rate) (CaCo2 cells; [8]): dose dependently and preferentially kill
Cytotoxicity of AKR1Bs substrate (cell survival rate) (HCT116 cells; [8]): dose dependently and preferentially kill
Cytotoxicity of AKR1Bs substrate (cell survival rate) (HT29 cells; [8]): more resistant
Cytotoxicity of AKR1Bs substrate (cell survival rate) (SW480 cells; [8]): more resistant

CCCCS(=N)(=O)CCC(N)C(=O)O [BSO, L-buthionine-[S,R]-sulfoximine]
Effect on toxicity of glyceraldehyde and diacetyl (HepG2 cells; [9]): more HepG2 and SKOV3 cells were killed; also recorded: enhanced the toxicity
Effect on toxicity of glyceraldehyde and diacetyl (SKOV3 cells; [9]): more HepG2 and SKOV3 cells were killed; also recorded: enhanced the toxicity
Effect on toxicity of glyceraldehyde and diacetyl (CaCo2 cells; [10]): enhanced the toxicity
Effect on toxicity of glyceraldehyde and diacetyl (HCT116 cells; [10]): enhanced the toxicity

CC(C)C[C@H](NC(=O)[C@H](Cc1ccccc1)NC(=O)c1cnccn1)B(O)O [Bortezomib]
AKR1B10 protein level (western blot) (AKR1B10 [6]; HT29 cells): increased
AKR1B10 protein level (western blot) (AKR1B10 [6]; SW480 cells): induced only AKR1B1
AKR1B1 protein level (western blot) (AKR1B1 [7]; HT29 cells): increased
AKR1B1 protein level (western blot) (AKR1B1 [7]; SW480 cells): induced
Sensitivity to 2DG after pretreatment (HT29 cells; [11]): significantly more cells were killed by 2DG
Sensitivity to 2DG after pretreatment (SW480 cells; [11]): significantly more cells were killed by 2DG

O=C[C@H](O)[C@@H](O)[C@@H](O)[C@H](O)CO [D-Galactose]
AKR1B1 activity, amount of NADPH (nmol) oxidized per min per mg of protein (AKR1B1 [3]): 193 nmol/min/mg
AKR1B10 activity, amount of NADPH (nmol) oxidized per min per mg of protein (AKR1B10 [4]): 65 nmol/min/mg

O=C[C@H](O)[C@@H](O)[C@H](O)[C@H](O)CO [D-Glucose]
AKR1B1 activity, amount of NADPH (nmol) oxidized per min per mg of protein (AKR1B1 [3]): 129 nmol/min/mg
AKR1B10 activity, amount of NADPH (nmol) oxidized per min per mg of protein (AKR1B10 [4]): 65 nmol/min/mg
